Test results as given in paper PMC8097335, “A High‐Affinity Calmodulin‐Binding Site in the CyaA Toxin Translocation Domain is Essential for Invasion of Eukaryotic Cells” (Advanced Science, 2021).
pKd: −log10 of the molar value.

Columns and labels:
[1] = Membrane permeabilization of ANTS/DPX-loaded LUVs; details: for CP1/2, peptide concentration required to induce recovery of 50% of ANTS fluorescence intensity upon LUVs permeabilization: ANTS:DPX LUVs POPC:POPG 8:2, 0.45 mM lipid, buffer A pH 7.4, 25 °C, ex 390/em 515 nm, S.D. ± 5%; for Vesicle permeabilization (in words): ANTS:DPX LUVs POPC:POPG 8:2
Method: To monitor membrane permeabilization induced by peptides, ANTS (fluorophore probe) and
DPX (quencher) were encapsulated into large unilamellar vesicles (LUVs). The LUVs were
prepared at a concentration of 10 mM lipid at a POPC:PO PG molar ratio of 8:2 containing 20
mM ANTS and 60 mM DPX. The multilamellar vesicle suspension was extrudedthrough 0.4-
and 0.2 μm polycarbonate filters to produce LUVs. The unencapsulated ANT S a nd DPX we re
removed by gel filtration with a 5 mL Sephadex G -25 column (GE Healthcare Life Sciences ).
For permeabilization assays, LUVs were incubated in buffer A at 0.45 mM lipid
concentration at 25°C in a 101-QS cuvette (Hellma, France) and under constant stirring.
excitation wavelength was set at 390 nm and the emission of ANTS was continuously
measured at 515 nm. The maximum intensity of permeabilization, corresponding to the
maximum recovery of ANTS fluorescence, was measured after addition of 0.1% of Triton
X100. The concentration of membrane-bound peptide s required to induce the recovery of half
intensity of the ANTS fluorescence (C P1/2) was extracted from the permeabilization intensity
a s a function of peptide concentration 1.
LUVs were incubated in buffer B at a lipid concentration of 0.45 mM.
After a few seconds of permeabilization,
holo-Ca M wa s added t o t he solution at a peptide:Ca M molar ratio of 1:3. EDT A wa s
subsequently added in excess to chelate calcium and convert holo -CaM to apo -C a M .

[2] = Synchrotron radiation circular dichroism, alpha-helical content (Bestsel); assay type: physicochemical; details: 25 °C, far-UV SRCD; for alpha-helical content, TFE 20%: 20% TFE; for alpha-helical content, POPC:POPG 8:2: SUVs POPC:POPG 8:2 at 2 mM lipid; for alpha-helical content, Solution: buffer A
Method: Synchrotron Radiation Circular Dichroism
Synchrotron radiation circular dichroism (SRCD) was performed on the DISCO beamline of the synchrotron SOLEIL (Saint -Aubin, France) . Spectra were recorded at 25°C with an integration time of 1.2 s and a bandwidth of 1 nm with a resolution of 1 nm. A far-UV spectrum represents the average of four individual scans. QS cells (Hellma, France) with a pathlength of 20, 50, 100 or 200 μm (depending on final protein concentrations) were used to record spectra in the fa r -UV range (from 190 to 250 nm). CD spectra of peptides and proteins were measured in buffers A and B, 20% of trifluoroethanol (TFE), in the presence of SUVs (POPC :PO PG 8: 2) or Ca M. Secondary structure content was estimated using Bestsel software […]
Table S8: Estimation of the α -helical content of P454-derived peptides. The secondary structure content is estimated using the on-line Bestsel software 17 available at http://bestsel.elte.hu/index.php. […]
peptide in buffer A, in 20% TFE and in the presence of POPC POPG (molar ratio 8:2) at 2 mM lipid concentration. The far -UV CD spectra of several P454-derived peptides are shown […]

[3] = Peptide titrations by SUVs followed by tryptophan fluorescence (solution-to-membrane partition); assay type: physicochemical; details: for Partition coefficient KX: POPC:POPG 8:2 SUVs, buffer A pH 7.4, 25 °C, tryptophan fluorescence ratio 330/370 nm; for Partition coefficient KX / ∆GKx for POPC POPG 8:2: S.D. within ± 10%; for pKd: converted from KX: [W]/KX = Kd, [W] = 55.5 M, read-out: Kd for POPC:POPG 8:2; for ∆GKx for POPC POPG 8:2: ∆GKx = -RT Ln Kx
Method: Lipid vesicles preparation
Small unilamellar vesicles (SUVs) and large unilamellar vesicles (LUVs) were prepared with POPC and POPG at a molar ratio of 8:2, at a lipid concentration of 10 mM in buffer A, as previously described 1. Briefly, SUVs and LUVs were prepared by reverse phase evaporation and filtered through polycarbonate filters of 1 μm and 0.2 μm of pore size diameter to obtain L UV. SUVs were further sonicated. The hydrodynamic diameters and mean net charge of the vesicles were measured by dynamic light scattering (DLS) and electrophoretic mobility, respectively, using a ZetaSizer NanoZS (Malvern Pananalytical , Orsay, France) 11.
Peptide titrations bySUV s and CaM followed by tryptophan fluorescence
Titrations were carried out with a FP-8200 Jasco spectrofluorimeter, equipped with a Pelt ie r - thermostated ETC-272T at 25°C. A bandwidth of 5 nm was used for both excitation and […]
(Hellma, France) with constant stirring. Fluorescence emission was recorded between 300 and […]
400 nm at a scan rate of 100 nm/min, with an excitation wavelength of 280 nm. Fluorescence emission spectra were corrected for SUV or CaM baselines . Fluorescence intensity ratio at 330 nm over 370 nm was use d to measure the partition coefficient (K X) of peptides between the solution andmembrane s 1, 12 and the affinity (K d) of peptides for CaM 13.
Determination of partition coefficient KX and dissociation constant Kd from […]
The partition coefficient KX is defined as the ratio of protein in the lipid (PL) and in buffer […]
(PW) pha se s 12, 14, expressed by: KKXX = [LL ]? , giving[PPWW ] [PPWW ]= [WW], where [W] the […]
concentration of water (55.5 M) and [L] the lipid concentration.
The fraction of peptide partitioned into the membrane, fPL, is equal to:
ffPPLL = [PPLL ][PPTT ]= [PPLL ][PPLL ]+[PPWW ]= 11+([PPWW ])= 11+( [WW]), where PT is the total concentration of peptides [PP TT ]= [PP LL ]+ [PP WW ]. […]
The equations a re fitted to the experimental data using the KaleidaGraph software, providing the KX and K d value s. The partition coefficient is related to the apparent dissociation constant:
KKXX × KKdd = [WW ] and to the free energy of partition ΔG Kx = -RTln(K X), where ΔG is the free energy in kcal/mol, R the gas constant (R = 1.98 x 10-3 kcal/mol/K) and T the temperature i n Kelvin. The free energy of peptide CaM interaction, ∆G Kd, is given by ΔG Kd = RTln(K d).
Sedimentation velocity-Analytical ultracentrifugation (SV -AUC) […]
ratio 1:1 (at 70 µM each). Samples were incubated 2h at 20°C in the ultracentrifuge and, then span at 42,000 rpm in an An-50 Ti rotor. […]

calmodulin (CaM) = biological target: T1, calmodulin (CaM) (Homo sapiens, UniProt P0DP23); test: Peptide titrations by CaM followed by tryptophan fluorescence, and ITC (Kd for CaM); assay type: binding; details: for Decrease of affinity for CaM relative to P454: from Table S3; for pKd: holo-CaM, from fluorescent titrations and ITC, 25 °C, average of at least three independent replicates; for pKd / ∆GKd for CaM: S.D. within ± 10%; for ∆GKd for CaM: ΔGKd = RTln(Kd)
T1 construct: made in house; host or cells: E. coli
Text: peptides by CaM and is expressed as follows: 𝐾𝐾 𝑑𝑑 = [𝑃𝑃 ]∗[𝐶𝐶𝐶𝐶𝐶𝐶 ][𝑃𝑃:𝐶𝐶𝐶𝐶𝐶𝐶] , given 𝐾𝐾𝑑𝑑[𝐶𝐶𝐶𝐶𝐶𝐶]= [𝑃𝑃 ][𝑃𝑃 :𝐶𝐶𝐶𝐶𝐶𝐶]and the fraction of complex, fP:CaM, i s: 𝑓𝑓𝑃𝑃:𝐶𝐶𝐶𝐶𝐶𝐶 = [𝑃𝑃 :𝐶𝐶𝐶𝐶𝐶𝐶 ][𝑃𝑃:𝐶𝐶𝐶𝐶𝐶𝐶]+[𝑃𝑃]= 11+ [𝑃𝑃 ]= 11+ 𝐾𝐾𝑑𝑑.

Row | Compound | CP1/2, peptide concentration required to induce recovery of 50% of ANTS fluorescence intensity upon LUVs permeabilization [1] | alpha-helical content, TFE 20% [2] | alpha-helical content, POPC:POPG 8:2 [2] | alpha-helical content, Solution [2] | Partition coefficient KX [3] | pKd [3] | ∆GKx for POPC POPG 8:2 [3] | Decrease of affinity for CaM relative to P454 (calmodulin (CaM)) | pKd (calmodulin (CaM)) | ∆GKd for CaM (calmodulin (CaM)) | Vesicle permeabilization (in words) [1]
1 | CC[C@H](C)[C@H](NC(=O)[C@H](C)NC(=O)[C@H](Cc1c[nH]cn1)NC(=O)[C@@H](NC(=O)[C@H](CC(C)C)NC(=O)[C@H](CCCNC(=N)N)NC(=O)[C@H](CCC(N)=O)NC(=O)[C@H](C)NC(=O)[C@H](C)NC(=O)[C@H](C)NC(=O)[C@@H](NC(=O)[C@H](C)NC(=O)[C@H](CCC(N)=O)NC(=O)[C@H](C)NC(=O)CNC(=O)[C@H](CCC(N)=O)NC(=O)[C@H](CC(C)C)NC(=O)[C@H](C)NC(=O)[C@H](CCCNC(=N)N)NC(=O)[C@H](CCC(N)=O)NC(=O)CNC(=O)[C@@H](N)Cc1c[nH]c2ccccc12)C(C)C)C(C)C)C(=O)N[C@@H](C)C(=O)N[C@@H](CC(C)C)C(N)=O [P458] | 1.26 µM | 50% | 23 ± 2% | 10 ± 4% | 190 ×10^3 | 3.54 | -7.2 kcal/mol |  |  |  | 
2 | Ac-ASAHAGQRAAQGAQAVAAAQRLVHAIALMTQ-NH2 [P454 W458A-L463A] | 6.59 µM | 56% | 8 ± 2% | 7 ± 1% | 22 ×10^3 | 2.59 | -5.9 kcal/mol | 4 fold | 6.19 | -8.4 kcal/mol | 
3 | Ac-ASAHAGQRALQGAQAVAAAQRLVHAAALMTQ-NH2 [P454 W458A-I479A] | > 80 µM | 55 ± 1% | 7 ± 3% | 10 ± 3% | 4.2 ×10^3 | 1.88 | -4.9 kcal/mol |  | 5.69 | -7.7 kcal/mol | do not permeabilize vesicles
4 | Ac-ASAHWGQAALQGAQAVAAAQALVHAIALMTQ-NH2 [P454 R12A] | 0.14 µM |  |  |  | 280 ×10^3 | 3.70 | -7.4 kcal/mol |  |  |  | 
5 | Ac-ASAHWGQKALQGAQAVAAAQKLVHAIALMTQ-NH2 [P454 R12K] | 0.09 µM | 45 ± 4% | 26 ± 1% | 13 ±2% | 220 ×10^3 | 3.59 | -7.3 kcal/mol |  | 7.30 | -9.9 kcal/mol | 
6 | Ac-ASAHWGQQALQGAQAVAAAQQLVHAIALMTQ-NH2 [P454 R12Q] | 0.23 µM | 50 ± 2% | 23 ± 1% | 8 ± 4% | 70 ×10^3 | 3.10 | -6.6 kcal/mol |  | 5.68 | -7.7 kcal/mol | 
7 | Ac-ASAHWGQQALQGAQAVAAAQRLVHAIALMTQ-NH2 [P454 R1Q] | 0.22 µM |  |  |  | 190 ×10^3 | 3.54 | -7.2 kcal/mol |  | 7.00 | -9.5 kcal/mol | 
8 | Ac-ASAHWGQRAAQGAQAVAAAQRAVSAAALMTQ-NH2 [P454 L463A-L475A-H477S-I479A] | > 50 µM | 38 ± 2% | 5 ± 2% | 4 ± 1% | 35 ×10^3 | 2.80 | -6.2 kcal/mol |  |  | -6.8 kcal/mol | do not permeabilize vesicles
9 | Ac-ASAHWGQRAAQGAQAVAAAQRLVHAIALMTQ-NH2 [P454 L463A] | 0.41 µM | 48 ± 3% | 19 ± 2% | 14 ± 2% | 630 ×10^3 | 4.05 | -7.9 kcal/mol |  | 6.70 | -9.1 kcal/mol | 
10 | Ac-ASAHWGQRALQGAQAVAAAQQLVHAIALMTQ-NH2 [P454 R2Q] | 0.11 µM |  |  |  | 150 ×10^3 | 3.43 | -7 kcal/mol |  | 6.74 | -9.2 kcal/mol | 
11 | Ac-ASAHWGQRALQGAQAVAAAQRAVHAIALMTQ-NH2 [P454 L475A] | 0.64 µM | 45 ± 1% | 15 ± 1% | 5 ± 2% | 350 ×10^3 | 3.80 | -7.7 kcal/mol |  | 6.92 | -9.4 kcal/mol | 
12 | Ac-ASAHWGQRALQGAQAVAAAQRAVSAAALMTQ-NH2 [P454 L475A-H477S-I479A] | 9.03 µM | 51 ± 4% | 6 ± 2% | 6 ± 2% | 18 ×10^3 | 2.50 | -5.8 kcal/mol | ≈ 20 fold | 5.81 | -7.9 kcal/mol | 
13 | Ac-ASAHWGQRALQGAQAVAAAQRLVHAAALMTQ-NH2 [P454 I479A] | 7.86 µM | 29 ± 1% | 12 ± 3% | 8 ± 2% | 330 ×10^3 | 3.77 | -7.5 kcal/mol |  |  | -7.9 kcal/mol | 
14 | Ac-ASAHWGQRALQGAQAVAAAQRLVHAIAAMTQ-NH2 [P454 L481A] | 0.06 µM | 49 ± 1% | 44 ± 3% | 5 ± 1% | 780 ×10^3 | 4.15 | -8 kcal/mol |  | 7.05 | -9.6 kcal/mol | 
